Experimental data from patent EP0873397B1, “NOVEL MICROORGANISM AND METHOD FOR ENVIRONMENTAL PURIFICATION USING THE SAME” (priority 1996, dated 1998).

Test: Analysis of byproducts in soil after trichloroethylene decomposition by UV-sterilized bacterial mass
Description: After plating the suspension of the bacterial mass onto a petri dish to a thickness of about 1 mm, and then sterilized under irradiation of a 15 W ultra violet lamp with a wavelength of 260 nm for not less than 60 seconds at a distance of 40 cm from the light source.
After that, trichloroethylene in the soil was allowed to be decomposed and the byproducts which is believed to be formed in association with trichloroethylene decomposition were analyzed in a similar manner to Example 13. Furthermore, in an experiment in which the suspension of sterilized bacterial mass at an amount of 1/100 of that of the NYG medium was inoculated or the suspension was plated as it was onto the NYG agar medium and cultured at 30°C, neither increase in turbidity of the culture liquid nor colony formation were observed, and thereby it was confirmed that there was complete sterilization.

OCC(Cl)(Cl)Cl [Trichloroethanol]
Result (byproduct in the soil): Not detected
